Laboratory results reported in US20040097587A1, “Compositions and methods of treatment of ulcerating diseases, burns, and related conditions” (priority 2003, published 2004).

System: venous ulcer
Test: Case of a person with venous ulcer and related conditions treated with oral isotretinoin
Format: in vivo, human
Settings: approximately 80 milligrams per day for two months
From the text: Preferred unit dosage formulations are those containing a daily dose or unit, daily sub-dose, or an appropriate fraction thereof, of the administered ingredient. […] Acad. of Dermatol, 45, 462-465, which is herein incorporated by reference.

With `CC1=C(/C=C/C(C)=C/C=C/C(C)=C\C(=O)O)C(C)(C)CCC1` [isotretinoin, 13-cis-retinoic acid] the “overall clinical outcome of venous ulcer and related conditions” value (person having venous ulcer and related conditions for five months) was “significant improvement”, the lesions (person) was “improved” and the venous ulcer healing (person) was “healed”. For the same molecule, the vessel prominence (person) was “significantly decreased”.
